{"source": "patent US12054744B2", "about": "“NK cells exhibiting an adaptive phenotype and methods for preparing and for using” (Regents of the University of Minnesota, priority 2015, dated 2024)", "molecules": {"B1": {"name": "catalase: ROS scavenger catalase (Sigma-Aldrich), 200 IU/mL (protein, UniProt P00432 2-527, looked up)", "Catalase": "ADNRDPASDQMKHWKEQRAAQKPDVLTTGGGNPVGDKLNSLTVGPRGPLLVQDVVFTDEMAHFDRERIPERVVHAKGAGAFGYFEVTHDITRYSKAKVFEHIGKRTPIAVRFSTVAGESGSADTVRDPRGFAVKFYTEDGNWDLVGNNTPIFFIRDALLFPSFIHSQKRNPQTHLKDPDMVWDFWSLRPESLHQVSFLFSDRGIPDGHRHMNGYGSHTFKLVNANGEAVYCKFHYKTDQGIKNLSVEDAARLAHEDPDYGLRDLFNAIATGNYPSWTLYIQVMTFSEAEIFPFNPFDLTKVWPHGDYPLIPVGKLVLNRNPVNYFAEVEQLAFDPSNMPPGIEPSPDKMLQGRLFAYPDTHRHRLGPNYLQIPVNCPYRARVANYQRDGPMCMMDNQGGAPNYYPNSFSAPEHQPSALEHRTHFSGDVQRFNSANDDNVTQVRTFYLKVLNEEQRKRLCENIAGHLKDAQLFIQKKAVKNFSDVHPEYGSRIQALLDKYNEEKPKNAVHTYVQHGSHLSAREKANL"}}, "type_in_all_cases": "cell-based, human", "key": {"[1]": {"test_system": "CD155 on monocytes", "assay": "ROS induction in monocytes by H2O2, staining for ROS, CD112 and CD155", "conditions": "H2O2 250 μM", "experimental": "(§1) MDSCs were induced from healthy blood donor PBMC with IL-6 (10 ng/mL) and GM-CSF (10 ng/mL) for 7 days, bead-depleted for HLA-DR, and enriched for CD33. FIG. 13A. MDSCs and freshly isolated monocytes were stained for the antigens shown. One representative example from independent experiments is shown. FIG. 13B. Induced MDSCs were stained for CD155 and analyzed by flow cytometry following overnight treatment with superoxide dismutase (SOD, 200 IU/mL), arginase inhibitor (a-ARG, arginase inhibitor N(ω)-hydroxy-nor-L-arginine, 500 μM), ROS scavenger (Catalase, 200 international units per milliliter (IU/mL)), blocking antibodies against TGF-β (10 μg/mL), iNOS inhibitor (aiNOS, NG-monomethyl-1-arginine, 500 micromolar (μM)), or left untreated. Pooled (n=4) data is shown as mean±SEM, and statistical analysis were done using the Student's t-test. FIG. 13C. Unstimulated monocytes and MDSCs were stained for total ROS and analyzed by flow cytometry. FIG. 13D. Unstimulated or H2O2 (250 μM) monocytes and unstimulated MDSCs were stained for total ROS, CD112, and CD155 and analyzed by flow cytometry. Cells double positive for ROS and CD112 or CD155 are shown. One representative donor of six is shown. One representative isotype control is shown for all groups for simplicity as individual controls were similar between conditions. […]"}, "[2]": {"test_system": "PLZF expression in cord blood-derived CD56^dim NK cells", "assay": "Intracellular PLZF staining of cord blood-derived CD56^dim NK cells after 14 days in culture", "conditions": "high-dose IL-15, IL-21 where added", "experimental": "FIG. 6A. FACS plots of intracellular PLZF expression in cord blood-derived CD56^dim NK cells from a representative donor after 14 days in the indicated culture conditions. FIG. 6B. Cumulative data showing the percentage of PLZF″ NK cells after 14 days in each culture condition from 6 donors. Two independent experiments were performed. Error bars represent SEM.\nMononuclear cells were isolated from whole cord blood by density gradient centrifugation. T cells and B cells were depleted by positive magnetic selection using anti-CD3 and anti-CD19 microbeads, respectively. CD3/CD19-depleted cells were then added to irradiated OP9 cells at a concentration of 5×10^5 cells/well and cultured for 14 days in RPMI media+10% FBS supplemented with either 1 ng/mL IL-15 or 10 ng/mL IL-15 with or without 50 ng/mL IL-21.\nCord blood-derived NK cells were analyzed before culture and after 7 and 14 days of culture by fluorescence activated cell sorting (FACS) using the following extracellular and intracellular antibodies: BV785-conjugated anti-CD3 (BioLegend, San Diego, CA), PE-Cy7-conjugated anti-CD56 (BioLegend, San Diego, CA), BV605-conjugated anti-CD57 (BioLegend, San Diego, CA), APC-conjugated SYK (eBioscience, San Diego, CA), and PE-conjugated anti-PLZF (BD Biosciences, San Jose, CA).\nTranscriptional silencing of the transcription factor promyelocytic leukemia zinc finger (PLZF) is a hallmark of adaptive NK cells that expand in response to CMV infection (Schlums et al. Immunity. 2015; 42(3):443-456). Intracellular staining for PLZF was performed in NK cells from freshly isolated mononuclear cells and from cells that were cultured for 14 days in vitro. Freshly isolated CD56^dimSYK^− NK cells from cord blood were predominantly PLZF-positive (99.3%±0.10). […] Therefore, IL-21 drives down PLZF expression in CD56^dimSYK^− NK cells, causing these cells to acquire adaptive characteristics (FIG. 6)."}, "[3]": {"test_system": "pZAP70/Syk and pERK1/2", "assay": "Phosflow of pZAP70/Syk and pERK1/2 in NK cells co-cultured with MDSCs", "conditions": "NK cells co-cultured with MDSCs 5 days; anti-TIGIT 10 ug/mL or catalase 200 IU/mL; anti-CD16 stimulation", "experimental": "(§2) Purified NK cells from healthy blood donors were co-cultured with autologous MDSCs or freshly isolated monocytes at a 2:1 ratio in the presence of IL-15 (10 ng/mL) and in the presence or absence of blocking antibodies against TIGIT (10 μg/mL), or catalase (200 IU/mL) for 5 days. Cells were then washed, rested for 4 hours, stimulated for 10 and 30 min with anti-CD16, and stained for pZAP/Syk or pERK1/2 respectively. Representative (FIG. 14A) or cumulative (FIG. 14B) data are shown from 3 independent experiments as mean±SEM. Statistical analysis was done using the Student's t-test. FIG. 14C. NK cells from monocyte and MDSC co-cultures in the presence or absence of anti-TIGIT or catalase were washed and incubated with 51 Cr-labeled K562 for 4 hours to assess NK cell cytotoxicity. Representative data from 3 independent experiments is shown as mean±SEM.\nGiven the strong suppressive effect of TIGIT engagement on conventional NK cell function and proliferation, the CD16 induced signaling interaction with TIGIT in NK cells co-cultured with MDSC was analyzed. […] To investigate whether blocking TIGIT or ROS could recover the function of NK cells cultured with MDSCs in cytotoxicity assays, NK cells were cultured with either monocytes or MDSCs were pre-treated with TIGIT blockade or catalase, washed, and then incubated with 51 Cr-labeled K562 cells. […]"}, "[4]": {"test_system": "K562", "assay": "Chromium (51Cr) release assay against K562", "conditions": "anti-TIGIT 10 ug/mL or catalase 200 IU/mL", "experimental": "as §2, with “NK cells from monocyte and MDSC co-cultures in the presence or absence of anti-TIGIT or catalase were washed and incubated with 51 Cr-labeled K562 for 4 hours to assess NK cell cytotoxicity. Representative data from 3 independent experiments is shown as mean±SEM.” left out\nGiven the strong suppressive effect of TIGIT engagement on conventional NK cell function and proliferation, the CD16 induced signaling interaction with TIGIT in NK cells co-cultured with MDSC was analyzed. […]\nFollowing 5 days of co-culture with monocytes or MDSCs in the presence or absence of blocking antibodies against TIGIT (10 ug/mL) or ROS scavenger catalase (200 IU/mL), NK cell cytotoxicity was analyzed by chromium (51 Cr) release assays (4 hours) against K562 (ATCC, Manassas, VA) cells at a 5:1-2.5:1 effector:target ratios. 51 Cr release was measured by a γ scintillation counter (Perkin Elmer, Waltham, MA), and specific target lysis was determined."}, "[5]": {"test_system": "CD155 on MDSCs", "assay": "CD155 staining of induced MDSCs after overnight treatment with inhibitors of MDSC pathways", "conditions": "catalase 200 IU/mL overnight", "experimental": "as §1, with “FIG. 13C.” left out, “FIG. 13D.” left out, “cytometry.” for “cytometry. Cells double positive for ROS and CD112 or CD155 are shown. One representative donor of six is shown. One representative isotype control is shown for all groups for simplicity as individual controls were similar between conditions.”\nPurified NK cells or MDS PBMC (FIG. 17) cultured with monocytes or MDSCs for different time points and with different stimuli were resuspended in staining buffer (PBS containing 0.5% human AB serum) and stained with fluorochrome-conjugated antibodies (Table IV). […] All cells were acquired by LSRII and analyzed by FlowJo. […]"}}}
{"molecule": "OO", "note": "[H2O2]", "values": [{"measurement": "expression of CD155 in ROS^+ monocytes", "setting": "[1]", "result": "induce the expression of CD155"}]}
{"molecule": "IL-21: cytokine added at 50 ng/mL to IL-15 cultures", "values": [{"measurement": "decrease in PLZF expression (percentage of PLZF-negative NK cells)", "setting": "[2]; CD56^dimCD57^+SYK^+ NK cells", "result": "12.13%±2.43"}, {"measurement": "decrease in PLZF expression (percentage of PLZF-negative NK cells)", "setting": "[2]; CD56^dimCD57^+SYK^− NK cells", "result": "66.0%±8.86"}, {"measurement": "decrease in PLZF expression (percentage of PLZF-negative NK cells)", "setting": "[2]; CD56^dimCD57^−SYK^+ NK cells", "result": "14.92%±1.80"}, {"measurement": "decrease in PLZF expression (percentage of PLZF-negative NK cells)", "setting": "[2]; CD56^dimCD57^−SYK^− NK cells", "result": "35.82%±7.02"}]}
{"molecule": "B1", "values": [{"measurement": "phosphorylation of ZAP70/Syk and ERK1/2", "setting": "[3]", "result": "increased the phosphorylation"}, {"measurement": "NK cell cytotoxicity against K562, NK cells cultured alone", "setting": "[4]", "result": "Neither anti-TIGIT nor catalase had any effect"}, {"measurement": "NK cell cytotoxicity against K562 after co-culture with MDSCs", "setting": "[4]; 5 days, 4 hours 51Cr release", "result": "completely reversed the suppressive effect"}, {"measurement": "decrease in the expression of CD155 on MDSCs", "setting": "[5]", "result": "55%±23"}]}
